≈ marks a conversion by molar mass, not a printed value.
How the values were obtained:
Test in all cases: inhibition of bacterial growth, MIC (agar)
Format in all cases: cell-based
Shigella sonnei MB 11967 = details: MB11967, read-out: concentration required to inhibit growth (MIC)
Staph. aureus Oxford = details: Staphylococcus aureus, read-out: concentration required to inhibit growth (MIC)
Staph. aureus Russell = details: Staphylococcus aureus, read-out: concentration required to inhibit growth (MIC)
[1] = system: Salmonella typhimurium CT10; details: Salmonella enterica, read-out: concentration required to inhibit growth (MIC)
Klebsiella aerogenes A = details: read-out: concentration required to inhibit growth (MIC)
Proteus mirabilis C977 = details: read-out: concentration required to inhibit growth (MIC)
E. coli 0111 = details: Escherichia coli, read-out: concentration required to inhibit growth (MIC)
Staph. aureus 1517 = details: Staphylococcus aureus, read-out: concentration required to inhibit growth (MIC)
Strep pyogenes CN10 = details: Streptococcus pyogenes, Staph. pyogenes CN 10 (so in the source), read-out: concentration required to inhibit growth (MIC)
Bacillus subtilis A = details: read-out: concentration required to inhibit growth (MIC)
Enterobacter cloacae N1 = details: read-out: concentration required to inhibit growth (MIC)
Proteus rettgeri WM16 = details: Providencia rettgeri, read-out: concentration required to inhibit growth (MIC)
Proteus morganii I 580 = details: Morganella morganii, I580, read-out: concentration required to inhibit growth (MIC)
Citrobacter freundii E8 = details: read-out: concentration required to inhibit growth (MIC)
Serratia marcescens US20 = details: read-out: concentration required to inhibit growth (MIC)
Salmonella typhimurium = details: Salmonella enterica, Salmonella typhimurium (strain not given), read-out: concentration required to inhibit growth (MIC)

Row | SMILES | MIC (Shigella sonnei MB 11967) | MIC (Staph. aureus Oxford) | MIC (Staph. aureus Russell) | MIC [1] | MIC (Klebsiella aerogenes A) | MIC (Proteus mirabilis C977) | MIC (E. coli 0111) | MIC (Staph. aureus 1517) | MIC (Strep pyogenes CN10) | MIC (Bacillus subtilis A) | MIC (Enterobacter cloacae N1) | MIC (Proteus rettgeri WM16) | MIC (Proteus morganii I 580) | MIC (Citrobacter freundii E8) | MIC (Serratia marcescens US20) | MIC (Salmonella typhimurium)
1 | COC(=O)/C=C/C[C@@H]1C(=O)N2C(C(=O)OC3OC(=O)c4ccccc43)=CC[C@H]12 (relative stereo) [Compound 41, Phthalidyl 6-(3-methoxycarbonyl-2-propen-1-yl)-7-oxo-1-azabicyclo[3,2,0]hept-2-ene-2-carboxylate] | 50 µg/mL (≈ 130 µM) | ≤ 0.8 µg/mL | ≤ 0.8 µg/mL | 50 µg/mL (≈ 130 µM) | 50 µg/mL (≈ 130 µM) | 100 µg/mL (≈ 261 µM) | 50 µg/mL (≈ 130 µM) | ≤ 0.8 µg/mL | ≤ 0.8 µg/mL |  |  |  |  |  |  | 
2 | N#C/C=C/C[C@@H]1C(=O)N2C(C(=O)OCc3ccccc3)=CC[C@H]12 (relative stereo) [Compound 56, Benzyl 6-(3-cyano-2-propen-1-yl)-7-oxo-1-azabicyclo[3,2,0]hept-2-ene-2-carboxylat] | 20 µg/mL (≈ 64.9 µM) | ≤ 2 µg/mL | ≤ 2 µg/mL | 20 µg/mL (≈ 64.9 µM) | 20 µg/mL (≈ 64.9 µM) | 20 µg/mL (≈ 64.9 µM) | 20 µg/mL (≈ 64.9 µM) | ≤ 2 µg/mL |  | 20 µg/mL (≈ 64.9 µM) | 20 µg/mL (≈ 64.9 µM) | 20 µg/mL (≈ 64.9 µM) | 20 µg/mL (≈ 64.9 µM) | 20 µg/mL (≈ 64.9 µM) | 20 µg/mL (≈ 64.9 µM) | 
3 | N#C/C=C/C[C@@H]1C(=O)N2C(C(=O)OC3OC(=O)c4ccccc43)=CC[C@H]12 (relative stereo) [Compound 61, Phthalidyl 6-(3-cyano-2-propen-1-yl)-7-oxo-1-azabicyclo[3.2.0]hept-2-ene-2-carboxylat] |  |  |  |  |  |  |  |  |  |  |  |  |  |  |  | 7 µg/mL (≈ 20 µM)
4 | CC(C)(O)[C@@H]1C(=O)N2C(C(=O)OCc3ccccc3)=CC[C@H]12 (relative stereo) [Example 4 cis-isomer, Benzyl 6-(2-hydroxy-2-propyl)-7-oxo-1-azabicyclo[3,2,0]hept-2-ene-2-carboxylate] | ≤ 2 µg/mL | ≤ 2 µg/mL | ≤ 2 µg/mL |  | ≤ 2 µg/mL |  |  |  |  |  | 20 µg/mL (≈ 66.4 µM) |  |  |  | 20 µg/mL (≈ 66.4 µM) | 
